Patent US10155753B2, “4-substituted-2-(5-substituted-1H-indol-2-yl)phenol derivatives, methods for preparing the phenol derivatives and pharmaceutical compositions for inhibiting cell proliferation and migration including the phenol derivatives” (KOREA UNIVERSITY RESEARCH AND BUSINESS FOUNDATION, priority 2015, dated 2018)

Tests used:
[1] = molecular target: T1, YANK3 (Homo sapiens, UniProt Q86UX6); assay: In vitro kinase assay: inhibition of YANK3 phosphorylation (IP kinase, [γ-32P]ATP, autoradiography); type: biochemical; design: dose or concentration left out as unconfirmed; conditions: MCF7 cells treated with each compound at 37° C. for 1 h; anti-HA IP, kinase reaction 30° C. 30 min
T1 construct: expressed in transfected cells; host or cells: MCF7 cells, Lipofectamine transfection, anti-HA immunoprecipitation
Description: Transduction was performed to overexpress YANK3-HA and YB1-HA genes in cells. Lipofectamine reagent (Invitrogen) was used for gene introgression. When cells were grown to a confluency of 60% in a culture dish, human YANK3-HA and YB1-HA genes were introduced into MCF7 cells. After 48 h, the gene-transfected cells were used for experiments. All cultured cells were harvested, lysed in a lysis buffer (1×RIPA buffer 1 mL, 1 mM PMSF, 1 mg/mL aprotinin, 1 mg/mL leupeptin, 2 mM DTT) for 30 min, and centrifuged at 15,000 rpm and 4° C. for 30 min. The supernatant was collected and its total protein content was quantified by the Bradford method. After YB1-HA gene introgression, the MCF7 cells were treated with each compound […] at 37° C. for 1 h. 1 μg of anti-HA antibody was cultured with […] of protein at 4° C. for 15 h, 20 μL of protein A/G-Sepharose was added thereto, followed by culture for another 2 h. The culture was centrifuged to precipitate the protein A/G-Sepharose, washed with IP kinase buffer (50 mM HEPES, pH 7.5, 10 mM MgCl2, 1 mM dithiothreitol, 2.5 mM EGTA, 1 mM NaF, 0.1 mM Na3VO4), and sufficiently mixed with 20 μL of IP kinase buffer. The kinase reaction was initiated by the addition of […] of [γ-^32P]ATP to 40 μL of IP kinase buffer. The reaction was allowed to proceed at 30° C. for 30 min. After addition of 5 μL of 2×SDS sample buffer, the reaction was quenched by boiling for 5 min, which was confirmed by SDS-PAGE electrophoresis and autoradiography.

[2] = tested on: YANK-expressed cells (STK32C/MCF7 cell); assay: Inhibition of cell proliferation (MCF7, STK32C/MCF7 cells, 96-well, read at 450 nm); type: cell-based; conditions: 24 h after addition of compound; FIGS. 3 to 6
Description: MCF7, STK32C/MCF7 cell (1×10^4/well) culture was plated in each well of a 96-well plate until it reached a final volume of 100 μl. After 24 h, the compounds at given concentrations were added. 24 h after the addition, 10 μl of an analytical reagent was plated in each well without bubbling. The reaction was allowed to proceed under basic culture conditions for 30 min to 1 h and the inhibitions of cell proliferation were measured at 450 nm.
FIGS. 3 to 6 show concentration-dependent inhibitions of proliferation of the YANK-expressed cells by treatment with the phenol derivatives of Formulae 7, 9, 13, and 32 (corresponding to Compound 34 in FIG. 2), respectively.

T1 sequence (Q86UX6 whole entry): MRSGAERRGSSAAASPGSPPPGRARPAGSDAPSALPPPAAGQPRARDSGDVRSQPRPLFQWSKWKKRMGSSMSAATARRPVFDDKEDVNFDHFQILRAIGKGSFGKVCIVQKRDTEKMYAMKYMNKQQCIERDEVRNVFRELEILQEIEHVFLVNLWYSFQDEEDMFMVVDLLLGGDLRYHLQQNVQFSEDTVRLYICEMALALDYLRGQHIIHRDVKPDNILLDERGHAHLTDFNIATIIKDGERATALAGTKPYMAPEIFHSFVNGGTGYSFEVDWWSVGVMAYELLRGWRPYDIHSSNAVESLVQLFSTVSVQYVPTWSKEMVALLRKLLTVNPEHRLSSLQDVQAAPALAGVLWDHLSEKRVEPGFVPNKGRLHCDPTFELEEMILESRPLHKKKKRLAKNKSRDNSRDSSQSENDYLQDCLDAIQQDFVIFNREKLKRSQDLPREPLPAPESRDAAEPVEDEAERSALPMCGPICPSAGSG

SMILES	Inhibition, % (inhibitions (%) of YANK3 phosphorylation) [1] [%]	concentration-dependent inhibition of proliferation of YANK-expressed cells [2]
Oc1ccc(-c2ccc(Cl)cc2)cc1-c1cc2cc(F)ccc2[nH]1 [Formula 13]	93	inhibited the proliferation of the YANK-expressed cells with high efficacy with increasing concentration
N=C(N)c1ccc2[nH]c(-c3cc(-c4ccc(Cl)cc4)ccc3O)cc2c1 [Compound 32, 2-(4′-Chloro-4-hydroxybiphenyl-3-yl)-1H-indole-5-carboximidamide]	65	inhibited the proliferation of the YANK-expressed cells with high efficacy with increasing concentration
N=C(N)c1ccc2[nH]c(-c3cc(-c4cccs4)ccc3O)cc2c1 [Compound 33, 2-(2-Hydroxy-5-(thiophen-2-yl)phenyl)-1H-indole-5-carboximidamide]	30	

Now from value to molecule, other results behind:

Inhibition, % (inhibitions (%) of YANK3 phosphorylation) [1] [%]	SMILES	concentration-dependent inhibition of proliferation of YANK-expressed cells [2]
163	COc1ccc(-c2ccc(O)c(-c3cc4ccccc4[nH]3)c2)cc1 [Formula 11, 3-(1H-Indol-2-yl)-4′-methoxybiphenyl-4-ol]	
144	N#Cc1ccc2[nH]c(-c3cc(Br)ccc3O)cc2c1 [Formula 9, 2-(5-Bromo-2-hydroxyphenyl)-1H-indole-5-carbonitrile]	inhibited the proliferation of the YANK-expressed cells with high efficacy with increasing concentration
74	Oc1ccc(Br)cc1-c1cc2cc(F)ccc2[nH]1 [Formula 7, 4-Bromo-2-(5-fluoro-1H-indol-2-yl)phenol]	inhibited the proliferation of the YANK-expressed cells with high efficacy with increasing concentration
125	Oc1ccc(-c2ccc(Cl)cc2)cc1-c1cc2cc(Cl)ccc2[nH]1 [Formula 16, 4′-Chloro-3-(5-chloro-1H-indol-2-yl)biphenyl-4-ol]	
